In article PMC4804213, “Human EAG channels are directly modulated by PIP2 as revealed by electrophysiological and optical interference investigations” (Scientific Reports, 2016):
Read-outs that look alike come from different tables or passages of the source.

Columns and labels:
[1] = molecular target: T1, hEAG1 (Kv10.1, KCNH1) (Homo sapiens, UniProt O95259); test: patch clamp, peak current inhibition at […] mV, Hill fit; format: cell-based
T1 construct: full length; untagged in pcDNA3.1 transiently in CHO cells (patch clamp); tetramer
T1 sequence (O95259 1-962 isoform O95259-2): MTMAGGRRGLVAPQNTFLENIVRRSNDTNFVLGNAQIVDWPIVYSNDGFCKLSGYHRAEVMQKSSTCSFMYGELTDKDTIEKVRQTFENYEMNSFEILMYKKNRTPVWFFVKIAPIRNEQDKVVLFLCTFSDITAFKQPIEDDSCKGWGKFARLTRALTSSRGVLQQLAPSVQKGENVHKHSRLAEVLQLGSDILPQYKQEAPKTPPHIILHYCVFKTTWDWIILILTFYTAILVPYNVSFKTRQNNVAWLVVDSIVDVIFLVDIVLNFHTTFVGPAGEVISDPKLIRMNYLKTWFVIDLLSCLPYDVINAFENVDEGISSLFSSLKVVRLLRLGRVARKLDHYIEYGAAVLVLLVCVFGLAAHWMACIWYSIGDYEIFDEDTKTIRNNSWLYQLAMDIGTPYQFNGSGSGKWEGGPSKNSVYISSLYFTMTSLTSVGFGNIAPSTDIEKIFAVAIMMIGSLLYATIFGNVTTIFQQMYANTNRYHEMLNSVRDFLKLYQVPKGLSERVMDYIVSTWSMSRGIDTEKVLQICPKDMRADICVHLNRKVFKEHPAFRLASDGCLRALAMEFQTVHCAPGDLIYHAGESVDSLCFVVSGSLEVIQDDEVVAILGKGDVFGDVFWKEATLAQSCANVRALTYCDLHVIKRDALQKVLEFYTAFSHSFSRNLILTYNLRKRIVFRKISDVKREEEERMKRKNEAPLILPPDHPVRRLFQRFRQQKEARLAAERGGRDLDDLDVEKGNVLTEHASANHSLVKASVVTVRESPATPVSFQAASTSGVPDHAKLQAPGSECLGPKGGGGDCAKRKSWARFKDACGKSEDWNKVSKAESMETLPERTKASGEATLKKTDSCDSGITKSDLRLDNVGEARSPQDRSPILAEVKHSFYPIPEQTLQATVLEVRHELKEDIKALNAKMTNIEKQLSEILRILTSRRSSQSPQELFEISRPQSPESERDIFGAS

[2] = molecular target: T1, hEAG1 (Kv10.1, KCNH1); test: bio-layer interferometry, biotinylated FLAG-tagged channel on streptavidin sensor, Hill fit; format: binding; details: 200-s cumulative application epochs; PBS, 0.02% Tween-20, 0.1% BSA, pH 7.4; room temperature; brain-derived lipid of mixed acyl chains

Compound: CCCCCCCC(=O)OC[C@H](COP(=O)(O)O[C@@H]1[C@H](O)[C@H](O)[C@@H](OP(=O)(O)O)[C@H](OP(=O)(O)O)[C@H]1O)OC(=O)CCCCCCC [diC8-PIP2]
- IC50 [1]: 18600 ± 600 nM

Compound: PIP2
- Kd [2]: 350 ± 40 nM
- IC50 ([1]; 200-s application to the intracellular side, peak current at 40 mV, room temperature, brain-derived lipid of mixed acyl chains): 350 ± 10 nM
